{
  "source": "patent US11452724B2",
  "about": "“Methods for treating amyotrophic lateral sclerosis” (The Regents of the University of Michigan, priority 2018, dated 2022)",
  "key": {"NK92 NK cells": {"tested_on": "NK92 NK cells", "assay": "NK cell migration transwell assay", "assay_type": "cell-based", "settings": "IL-15 stimulated NK92 cells, 3 hours", "procedure": "(§1) FIG. 3A-E: Tofacitinib reduces NK cell activity and cytotoxicity. (A) NK cells (NK92 cell line) were treated with tofacitinib either after 30 ng/ml of IL-15 activation overnight (ON) or before IL-15 activation (2-hours) to test its efficacy in inhibiting already activated NK cells (overnight stimulation) or preventing their activation (2-hour stimulation). (B) NK cells cultured Overnight or 2 Hrs with IL-15 were lysed and cytokine expression assessed using qPCR. IL-10, TNF-α, and IFN-γ gene expression was assessed. (C) Intracellular granzyme B and perforin were levels were assessed in NK cells in vitro using flow cytometry. […] (D) NK cell migration was assessed using a transwell assay. […] A chemoattractant (serum or CCL13) was placed on the other side of the transwell and after 3 hours the fluorescent intensity in the chemoattractant half of the well was assessed. (E) NK cytotoxicity was measured using a K562 co-culture assay. […] Cells were then stained with a viability dye and analyzed using flow cytometry. […]\n(§2) Experiments were conducted to assess the impact on NK cell migration following tofacitinib treatment (FIG. 3D). […] NK cell chemoattractants (serum or CCL13) were then placed in the other half of the well and the number of NK cells which traversed the membrane were measured. […] Cells were collected, stained with a viability dye, and analyzed using flow cytometry. […]"}, "peripheral NK cells [1]": {"tested_on": "peripheral NK cells", "settings": "human patients; van Vollenhoven et al. 2019, van Gurp et al. 2008; cited from earlier work"}, "[2]": {"tested_on": "NK92 NK cells co-cultured with K562 cancer cells", "assay": "NK cytotoxicity K562 co-culture assay", "assay_type": "cell-based", "settings": "4:1 NK:K562 ratio overnight; even following overnight IL-15 stimulation", "procedure": "as §1, §2"}, "NK cells, CD4 T cells": {"tested_on": "NK cells, CD4 T cells", "settings": "cited from earlier work"}, "NK92 NK cell line [3]": {"tested_on": "NK92 NK cell line", "assay": "Intracellular granzyme B and perforin levels in NK cells by flow cytometry", "assay_type": "cell-based", "procedure": "FIG. 3A-E: Tofacitinib reduces NK cell activity and cytotoxicity. (A) NK cells (NK92 cell line) were treated with tofacitinib either after 30 ng/ml of IL-15 activation overnight (ON) or before IL-15 activation (2-hours) to test its efficacy in inhibiting already activated NK cells (overnight stimulation) or preventing their activation (2-hour stimulation). (B) NK cells cultured Overnight or 2 Hrs with IL-15 were lysed and cytokine expression assessed using qPCR. IL-10, TNF-α, and IFN-γ gene expression was assessed. (C) Intracellular granzyme B and perforin were levels were assessed in NK cells in vitro using flow cytometry. Fluorescent intensity was plotted for unstimulated NK cells in serum free conditions (negative control; blue), serum-stimulated NK cells (positive control; red), IL-15 stimulated NK cells (30 ng/ml IL-15; orange), or tofacitinib treated NK cells (30 ng/ml IL-15+ tofacitinib; green). (D) NK cell migration was assessed using a transwell assay. NK92 cells were fluorescently labeled and placed on one side of a well separated by a porous membrane. A chemoattractant (serum or CCL13) was placed on the other side of the transwell and after 3 hours the fluorescent intensity in the chemoattractant half of the well was assessed. (E) NK cytotoxicity was measured using a K562 co-culture assay. […] Cells were then stained with a viability dye and analyzed using flow cytometry. […]"}, "NK92 NK cell line [4]": {"tested_on": "NK92 NK cell line", "assay": "Cytokine gene expression by qPCR in IL-15 stimulated NK92 cells", "assay_type": "cell-based", "settings": "30 ng/ml IL-15, tofacitinib treatment (Overnight IL-15) or pre-treatment (2 Hr IL-15)", "procedure": "as §1\nTo test this possibility, experiments were conducted that utilized the well-characterized NK92 NK cell line to assess tofacitinib's impact on NK cell activation and cytotoxicity in vitro. […] First, NK cells from these two conditions were collected, lysed, and cytokine expression gene expression was assessed using qPCR (FIG. 3B)."}, "peripheral NK cells [5]": {"tested_on": "peripheral NK cells", "settings": "mice; Shimaoka et al. 2017; cited from earlier work"}},
  "note": "Read-outs that look alike come from different tables or passages of the source.",
  "data": [
    {"molecule": "C[C@@H]1CCN(C(=O)CC#N)C[C@@H]1N(C)c1ncnc2[nH]ccc12", "note": "[tofacitinib]", "values": [
      {"measurement": "NK cell migration in response to CCL13", "setting": "NK92 NK cells; CCL13 as chemoattractant", "result": "more robust suppression"},
      {"measurement": "NK cell migration in response to serum", "setting": "NK92 NK cells; serum as chemoattractant", "result": "modest reduction"},
      {"measurement": "peripheral NK cells", "setting": "peripheral NK cells [1]", "result": "capable of reducing"},
      {"measurement": "NK cell-mediated killing (K562 survival)", "setting": "[2]", "result": "ameliorated"},
      {"measurement": "NK cell levels", "setting": "NK cells, CD4 T cells; Hodge et al. 2016, van Gurp et al. 2008", "result": "reduced in a dose dependent manner"},
      {"measurement": "CD4 T cell levels", "setting": "NK cells, CD4 T cells; van Gurp et al. 2008", "result": "maintaining"},
      {"measurement": "intracellular perforin levels", "setting": "NK92 NK cell line [3]; NK cells stimulated with IL-15, particularly when treated with tofacitinib prior to IL-15 stimulation", "result": "reduced"},
      {"measurement": "intracellular granzyme B levels", "setting": "NK92 NK cell line [3]; NK cells stimulated with IL-15 overnight or for two hours, flow cytometry", "result": "modest effect"},
      {"measurement": "IFN-γ gene expression", "setting": "NK92 NK cell line [4]", "result": "significantly reduced"},
      {"measurement": "IL-10 gene expression", "setting": "NK92 NK cell line [4]", "result": "significantly reduced"},
      {"measurement": "peripheral NK cells", "setting": "peripheral NK cells [5]", "result": "capable of reducing"}
    ]}
  ]
}
